Measured values as given in patent US4966896A, “Derivative of N-methylcarbamate and insecticide containing the same” (priority 1988, dated 1990).
Where two headings read alike, the source gives them in different places.

Tests used:
[1] = tested on: Green rice leafhopper (Nephotettix cincticeps); experiment: Mortality of Green rice leafhopper female adults on pot-grown rice plants treated with a 1000 ppm suspension (Test Example 1); format: in vivo
Procedure: 10 ml of a 1000 ppm suspension of each sample compound (30% wettable powder) was poured into a pot in which rice plant (1.5 leaf stage) was grown, and the pot was placed in a greenhouse enclosed by glass. 3 days after applying the sample compound, the rice plant was covered by a cylindrical metal netting having a diameter of 7.5 cm and a height of 40 cm and 10 female adults of Green rice leafhopper (Nephotettix cincticeps) were released in the netting. The numbers of living and dead insects were checked 48 hours after applying. The test was repeated twice.

[2] = tested on: Southern root-knot nematode (Meloidogyne incognita); experiment: Root-knot index on tomato seedlings in soil contaminated with Southern root-knot nematode (Test Example 3); format: in vivo; conditions: 3% granule, checked 25 days after transplanting
Procedure: A predetermined quantity of a 3% granule of each compound was mixed with a soil contaminated with Southern root-knot nematode (Meloidogyne incognita). 2 days after treatment of the compound, 3 to 4 leaf stage tomato seedlings were transplanted, and the root-knot index was checked 25 days later.
The root-knot index was determined with the following standard for nemotoidal evaluation.
2 Moderate number of root-knots found
4 Very many root-knots found

second instar larvae = experiment: Mortality of second instar larvae on pot-grown cabbage treated with a 1000 ppm suspension (Test Example 2); format: in vivo
Procedure: 30 ml of a 1000 ppm suspension of each sample compound (30% wettable powder) was poured into a pot in which cabbage (2 to 3 leaf stage) was grown, and the pot was placed in a greenhouse enclosed by glass. 3 days after applying the sample compound, the cabbage was covered by a cylindrical metal netting having a diameter of 7.5 cm and a height of 20 cm and 10 second instar larvae were released in the netting. 48 hours after applying the numbers of living and dead insects were checked. The test was repeated twice.

[3] = Acute oral toxicity in mice (Toxicity Test Example); conditions: mouse, in vivo, male mice, 7 days after administration, Litchfield-Wilcoxon Method
Procedure: Representative examples of the compound of this invention were administered orally to mice (.male.) and the acute toxicities thereof were tested. LD50 was calculated from the percentage of dead mice according to the Litchfield-Wilcoxon Method 7 days after the administration.

[4] = tested on: warm-blooded animals and fishes; conditions: prior art statement; cited from earlier work

CN(C(=O)NS(=O)(=O)Nc1nccs1)C(=O)Oc1cccc2c1OC(C)(C)C2 [compound 12]
mortality at 1000 ppm ([1]; 48 h): 100%
Root-Knot Index ([2]; Active Ingredient 250 g/a): 3
Root-Knot Index ([2]; Active Ingredient 500 g/a): 2

CN(C(=O)NS(=O)(=O)Nc1ccccn1)C(=O)Oc1cccc2c1OC(C)(C)C2 [compound 13]
mortality at 1000 ppm ([1]; 48 h): 100%
Root-Knot Index ([2]; Active Ingredient 250 g/a): 3
Root-Knot Index ([2]; Active Ingredient 500 g/a): 2

CCCCNS(=O)(=O)NC(=O)N(C)C(=O)Oc1cccc2c1OC(C)(C)C2 [Compound No. 5, 2,3-dihydro-2,2-dimethylbenzofuran-7-yl N-(butylsulfamoylcarbamoyl) N-methylcarbamate]
mortality at 1000 ppm ([1]; 48 h): 100%
mortality at 1000 ppm (second instar larvae; 48 h): 100%
LD50 at 168 h [3]: 200 mg/kg
Root-Knot Index ([2]; Active Ingredient 250 g/a): 2
Root-Knot Index ([2]; Active Ingredient 500 g/a): 1

CCC(C)NS(=O)(=O)NC(=O)N(C)C(=O)Oc1cccc2c1OC(C)(C)C2 (centres unmarked) [compound 16]
mortality at 1000 ppm ([1]; 48 h): 100%
mortality at 1000 ppm (second instar larvae; 48 h): 100%
Root-Knot Index ([2]; Active Ingredient 250 g/a): 2
Root-Knot Index ([2]; Active Ingredient 500 g/a): 1

COC(=O)c1ccccc1NS(=O)(=O)NC(=O)N(C)C(=O)Oc1cccc2c1OC(C)(C)C2 [compound 10]
mortality at 1000 ppm ([1]; 48 h): 90%
Root-Knot Index ([2]; Active Ingredient 250 g/a): 2
Root-Knot Index ([2]; Active Ingredient 500 g/a): 1

CN(C(=O)NS(=O)(=O)Cl)C(=O)Oc1cccc2c1OC(C)(C)C2 [Compound No. 1, 2,3-Dihydro-2,2-dimethylbenzofuran-7-yl N-(chlorosulfonylcarbamoyl) N-methylcarbamate]
mortality at 1000 ppm ([1]; 48 h): 100%
mortality at 1000 ppm (second instar larvae; 48 h): 100%
Root-Knot Index ([2]; Active Ingredient 250 g/a): 2
Root-Knot Index ([2]; Active Ingredient 500 g/a): 1

C#CCNS(=O)(=O)NC(=O)N(C)C(=O)Oc1cccc2c1OC(C)(C)C2 [compound 7, 2,3-dihydro-2,2-dimethylbenzofuran-7-yl N-(propargylsulfamoylcarbamoyl) N-methylcarbamate]
mortality at 1000 ppm ([1]; 48 h): 100%
mortality at 1000 ppm (second instar larvae; 48 h): 100%
Root-Knot Index ([2]; Active Ingredient 250 g/a): 2
Root-Knot Index ([2]; Active Ingredient 500 g/a): 1

CNC(=O)Oc1cccc2c1OC(C)(C)C2 [Control, 2,3-dihydro-2,2-dimethylbenzofuran-7-yl N-methyl-carbamate]
toxicity to warm-blooded animals and fishes [4]: extremely toxic to warm-blooded animals and fishes

CN(C(=O)NS(=O)(=O)Nc1ccccc1Cl)C(=O)Oc1cccc2c1OC(C)(C)C2 [compound 8]
mortality at 1000 ppm ([1]; 48 h): 90%
Root-Knot Index ([2]; Active Ingredient 250 g/a): 3
Root-Knot Index ([2]; Active Ingredient 500 g/a): 2

CNS(=O)(=O)NC(=O)N(C)C(=O)Oc1cccc2c1OC(C)(C)C2 [Compound No. 2, 2,3-Dihydro-2,2-dimethylbenzofuran-7-yl N-(methylsulfamoylcarbamoyl) N-methylcarbamate]
mortality at 1000 ppm ([1]; 48 h): 100%
mortality at 1000 ppm (second instar larvae; 48 h): 100%
Root-Knot Index ([2]; Active Ingredient 250 g/a): 3
Root-Knot Index ([2]; Active Ingredient 500 g/a): 2

CCOC(=O)c1ccc(NS(=O)(=O)NC(=O)N(C)C(=O)Oc2cccc3c2OC(C)(C)C3)cc1 [compound 11]
mortality at 1000 ppm ([1]; 48 h): 90%
Root-Knot Index ([2]; Active Ingredient 250 g/a): 3
Root-Knot Index ([2]; Active Ingredient 500 g/a): 2

CCCNS(=O)(=O)NC(=O)N(C)C(=O)Oc1cccc2c1OC(C)(C)C2 [compound 15, 2,3-dihydro-2,2-dimethylbenzofuran-7-yl N-(propylsulfamoylcarbamoyl) N-methylcarbamate]
mortality at 1000 ppm ([1]; 48 h): 100%
mortality at 1000 ppm (second instar larvae; 48 h): 100%
Root-Knot Index ([2]; Active Ingredient 250 g/a): 2
Root-Knot Index ([2]; Active Ingredient 500 g/a): 1

COc1ccccc1NS(=O)(=O)NC(=O)N(C)C(=O)Oc1cccc2c1OC(C)(C)C2 [compound 9]
mortality at 1000 ppm ([1]; 48 h): 90%
Root-Knot Index ([2]; Active Ingredient 250 g/a): 3
Root-Knot Index ([2]; Active Ingredient 500 g/a): 2

CONS(=O)(=O)NC(=O)N(C)C(=O)Oc1cccc2c1OC(C)(C)C2 [compound 14, 2,3-dihydro-2,2-dimethylbenzofuran-7-yl N-(methoxysulfamoylcarbamoyl) N-methylcarbamate]
mortality at 1000 ppm ([1]; 48 h): 100%
Root-Knot Index ([2]; Active Ingredient 250 g/a): 3
Root-Knot Index ([2]; Active Ingredient 500 g/a): 2

CN(C(=O)NS(=O)(=O)NC1CCCC1)C(=O)Oc1cccc2c1OC(C)(C)C2 [compound 18]
mortality at 1000 ppm ([1]; 48 h): 80%

CC(C)NS(=O)(=O)NC(=O)N(C)C(=O)Oc1cccc2c1OC(C)(C)C2 [Compound No. 4]
mortality at 1000 ppm ([1]; 48 h): 100%
mortality at 1000 ppm (second instar larvae; 48 h): 100%
Root-Knot Index ([2]; Active Ingredient 250 g/a): 2
Root-Knot Index ([2]; Active Ingredient 500 g/a): 1

CNC(=O)Oc1cccc2c1OC(C)(C)C2 [Control]
mortality at 1000 ppm ([1]; 10 ml of 1000 ppm suspension (30% wettable powder) per pot, insects released 3 days after applying, checked at 48 hours, repeated twice, read-out: Mortality): 100%
mortality at 1000 ppm (second instar larvae; 30 ml of 1000 ppm suspension (30% wettable powder) per pot, larvae released 3 days after applying, checked at 48 hours, repeated twice, read-out: Mortality): 100%
LD50 at 168 h [3]: 5 mg/kg

CN(C(=O)NS(=O)(=O)NC1CCCCC1)C(=O)Oc1cccc2c1OC(C)(C)C2 [compound 19]
mortality at 1000 ppm ([1]; 48 h): 80%

CN(C(=O)NS(=O)(=O)NC(C)(C)C)C(=O)Oc1cccc2c1OC(C)(C)C2 [compound 17]
mortality at 1000 ppm ([1]; 48 h): 100%
mortality at 1000 ppm (second instar larvae; 48 h): 100%
Root-Knot Index ([2]; Active Ingredient 250 g/a): 2
Root-Knot Index ([2]; Active Ingredient 500 g/a): 1

CCNS(=O)(=O)NC(=O)N(C)C(=O)Oc1cccc2c1OC(C)(C)C2 [Compound No. 3, 2,3-Dihydro,2,2-dimethylbenzofurane-7-yl N-(ethylsulfamoylcarbamoyl) N-methylcarbamate]
mortality at 1000 ppm ([1]; 48 h): 100%
mortality at 1000 ppm (second instar larvae; 48 h): 100%
LD50 at 168 h [3]: 170 mg/kg
Root-Knot Index ([2]; Active Ingredient 250 g/a): 2
Root-Knot Index ([2]; Active Ingredient 500 g/a): 1
